This assay has as its system ARC7093 (AdeJ [G288S]) versus NCTC 13304. Kind of assay: Ethidium bromide uptake (accumulation) assay. Type of assay: cell-based, A. baumannii. As to conditions: over 20 min; 8 µM EtBr; P < 0.0001. An excerpt:
This AdeJ variant has been previously described in the context of carbapenem resistance due to the overexpression of the AdeJ pump, although the association was only made based on genotype, not phenotype ([31]). The efflux capacity of ARC7093 was, therefore, compared to NCTC 13304, a SUL-DUR-susceptible clinical isolate with wild-type AdeIJK, in an ethidium bromide accumulation assay. […] Therefore, the AdeJ (G288S) variant may play a role in susceptibility to SUL-DUR in Acinetobacter spp.
NCTC 13304 and ARC7093 were cultured overnight on Tryptic Soy Blood Agar plates. Single colonies were used to inoculate 2 mL of Mueller-Hinton Cation-adjusted Broth (MHBII) and grown overnight at 35°C with shaking. On the day of the experiment, the overnight culture was diluted 100-fold into a flask containing 20 mL of MHBII and grown under the same conditions to OD600 ~0.2. Two-mL aliquots of this logarithmic phase culture were centrifuged. The pellets were gently re-suspended in 2-mL of sterile phosphate-buffered saline (pH 7.0) containing 8 µM EtBr. The cells were transferred to a black-wall, clear-bottom 96-well microplate, and EtBr fluorescence (excitation—530 nm, emission—590 nm) was measured over a period of 20 min in a SpectraMax M5e plate reader (Molecular Devices). Statistical significance for the accumulation of ethidium bromide was determined using an unpaired t-test.

SMILES strings stand for the structures.

Consider 1 compound from publication PMC10648852, “Molecular drivers of resistance to sulbactam-durlobactam in contemporary clinical isolates of Acinetobacter baumannii” (Antimicrobial Agents and Chemotherapy, 2023).

Regarding `CC[n+]1c(-c2ccccc2)c2cc(N)ccc2c2ccc(N)cc21` [ethidium bromide], the “accumulation of ethidium bromide in ARC7093 versus NCTC 13304” value is “significantly lower”.
